Assay results reported in patent US20240091230A1, “USE OF KRAS G12C INHIBITOR IN TREATING CANCERS” (AMGEN INC., priority 2021, published 2024).

Test system: locally advanced or metastatic KRAS G12C mutant NSCLC
Assay: CodeBreaK 100 phase 2 portion, sotorasib monotherapy 960 mg QD (NCT03600883)
Format: in vivo, human
Conditions: among 46 confirmed responders; cutoff Sep. 1, 2020
Protocol: As discussed above, in phase 2 of the CodeBreaK 100 Trial (ClinicalTrials.gov identifier: NCT03600883) subjects with locally advanced or metastatic KRAS G12C mutant NSCLC were treated with the compound of Formula I as monotherapy at 960 mg QD.
• Subject has provided informed consent prior to initiation of any study specific activities/procedures. • Men or women: 18 years of age or older. • Pathologically documented, locally-advanced or metastatic malignancy with KRAS G1 2C 10 mutation identified through molecular testing. For phase 2. the mutation was confirmed by central testing prior to enrollment. • Subjects must have progressed after receiving anti-PD-1 or anti-PD-L1 immunotherapy (unless contraindicated) AND/OR platinum-based combination chemotherapy AND targeted therapy if actionable oncogenic driver mutations were identified (i.e., EGFR, ALK, and ROS1). Subjects must have received no more than 3 prior lines of therapy. The following guidance was used: • Adjuvant therapy was counted as a line of therapy if the subject progressed on or within 6 months of adjuvant therapy administration. • In locally advanced and unresectable NSCLC, disease progression on or within six months of end of prior curatively intended multimodal therapy was counted as a line of therapy.
• Active brain metastases from non-brain tumors.
Samples for biomarker analysis, e.g., to evaluate potential biomarkers that may correlate with treatment response, were collected.
For subjects with NSCLC an archival tumor sample (formalin fixed, paraffin embedded (FFPE) sample, collected within 5 years of enrollment) or pretreatment tumor biopsy (core needle or fine needle aspirates or excisional FFPE sample) was submitted prior to enrollment for central laboratory testing as well as subsequent exploratory biomarker analyses. […]
KRAS G12C mutation testing was conducted using a therascreen® KRAS RGQ PCR Kit (Qiagen). […] The mutations detected are: G12A, G12D, G12R, G12C, G12S, G12V, and G13D.
PD-L1 testing was conducted at the central labs using the Dako PharmDx 22C3 immunohistochemistry FDA-approved kit according to the instructions for use. […] All slides were reviewed and scored by a board-certified pathologist trained to score the PD-L1 IHC 22C3 pharrnDx assay.
STK11, KEAP1 , and TP53 mutation testing was conducted using the Resolution Bioscience Resolution ctDx Lung™ assay that included 24 genes (including those actionable in NSCLC). […] STK11/KEAP1/TP53 co-mutation analysis determined mutational status from baseline tissue and/or plasma samples, and mutations include nonsense, missense, frameshift, or splice site mutations and insertion/deletions predicted to be loss-of-function, and excluded variants of unknown significance. […]

C=CC(=O)N1CCN(c2nc(=O)n(-c3c(C)ccnc3C(C)C)c3nc(-c4c(O)cccc4F)c(F)cc23)[C@@H](C)C1 [sotorasib, 6-fluoro-7-(2-fluoro-6-hydroxyphenyl)-(1M)-1-[4-methyl-2-(propan-2-yl)pyridin-3--yl]-4-[(2S)-2-methyl-4-(prop-2-enoyl)piperazin-1-yl]pyrido[2,3-d]pyrimidin-2(1H)-one]
Duration of response (KM) - 25th percentile: 6.8 months | Duration of response (KM) - 75th percentile: 8.4 months | Duration of response (KM) - Max (+ for censored): 8.4 months | Duration of response (KM) - Median: 8.4 months
